Source: patent publication US9103830B2, “Enzyme sensors, methods for preparing and using such sensors, and methods of detecting protease activity” (Georgia State University Research Foundation, Inc., priority 2006, dated 2015)
Entries after “also recorded” stand apart in the source; their conditions may differ. Blank lines part the entries; values can stand above or below the compound they belong to.

What was measured:
trypsin [1] = biological target: T1, trypsin (Bos taurus, UniProt P00760); test: Cleavage status after trypsin digestion (SDS-PAGE, MALDI-MS); type: biochemical, bovine; conditions: up to 40 hours
T1 construct: Active trypsin is produced only after trypsinogen reaches the small intestine through the common bile duct and is cleaved by enterokinase; purchased Sigma, St. Louis; host or cells: bovine pancreas
T1 sequence (P00760 24-246): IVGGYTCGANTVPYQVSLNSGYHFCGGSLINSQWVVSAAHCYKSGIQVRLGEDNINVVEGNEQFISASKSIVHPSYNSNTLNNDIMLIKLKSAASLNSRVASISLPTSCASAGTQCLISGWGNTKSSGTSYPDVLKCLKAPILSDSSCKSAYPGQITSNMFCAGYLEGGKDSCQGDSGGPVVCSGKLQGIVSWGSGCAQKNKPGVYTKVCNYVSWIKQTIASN
Protocol: To examine the cleavage status of the protease sensors (EGFP-T/C1, and EGFP-wt) at different time points, 20 μl of reaction mixtures of 15 μM EGFP variants during trypsin digestion were removed and immediately added SDS sample buffer and boiled to stop the reaction for monitoring by SDS-PAGE at different digestion time intervals (0 min, 5 min, 10 min, 30 min, 60 min, 2 h, 6 h, and 24 h). The samples were loaded on 15% SDS-PAGE to examine the cleavage status of three EGFP variants.
Similarly, after digestion with trypsin, the cleavage status was confirmed using matrix assisted laser desorption/ionization-mass spectrometry (MALDI-MS).
In order to verify the cleavage status of EGFP-based trypsin sensors, the samples during trypsin digestion at various digestion time intervals were examined with 15% SDS-PAGE and MALDI mass spectrometry.

[2] = test system: trypsin activation in MIA PaCa-2 cells; test: Fluorescence imaging of MIA PaCa-2 cells transfected with trypsin sensor, caerulein activation; type: cell-based; conditions: zymogen activation by 10 nM caerulein
Protocol: (§1) MIA PaCa-2 cells were grown on glass coverslips (0.5-1.0×10^6 cells/dish) in 35 mm culture dishes in Dulbecco's Modified Eagles Medium (DMEM) (Sigma Chemical Co., St. Louis, Mo.) with 44 mM NaHCO3, pH 7.2, and supplemented with 10% (v/v) fetal bovine serum (FBS), 100 U/ml penicillin and 0.1 mg/ml streptomycin (Pen/Strep) at 37° C. with 5% CO2 in a humidified incubation chamber. After the cells were seeded and grown overnight, EGFP-T/C1 was transfected into MIA PaCa-2 cells with lipofectamine-2000 (Invitrogen Life Technologies) and serum-free Opti-MEM (Gibco Invitrogen Corporation) according to the manufacturer's instructions. […] The cells were then grown 24 to 48 hours in a humidified chamber with 5% CO2 at 30° C. before fluorescence microscope imaging. […]
MIA PaCa-2 cells with transfected EGFP-T/C1 were imaged following trypsin sensor expression for 24 or 48 hours. […] The ratiometric change between fluorescence emission for excitation at 398 nm and 488 nm was used to detect trypsin activity at different time intervals in the living cells. Fluorescence for both excitation wavelengths is expected to decrease at 398 nm and produce a corresponding increase at 488 nm during the course of reaction. The fluorescence intensity of the cells was normalized with equation 2: […]
The fluorescence ratiometric change (R) is expressed by equation 3: […]

[3] = test system: caspase-3 activation in Hela cells; test: Fluorescence imaging of Hela cells transfected with caspase-3 sensor, STS induction; type: cell-based, human
Protocol: as §1, with “Hela” for “MIA PaCa-2”, “calf” for “bovine”, “(FCS),” for “(FBS),”, “the EGFP-based caspase-3 sensor plasmid” for “EGFP-T/C1”
Hela cells with transfected EGFP-based caspase-3 sensor were imaged following its expression for 24 or 48 hours. […] Fluorescence imaging of Hela cells with EGFP-wt transfection was used as the control.
The ratiometric change between fluorescence emission for excitation at 398 nm and 488 nm was used to detect caspase-3 activation and inhibition at different time intervals in living cells. Fluorescence for both excitation wavelengths is expected to decrease at 398 nm and produce a corresponding increase at 488 nm during the course of the reaction. The fluorescence intensity of the cells was normalized with equation 2: […]

[4] = test system: caspase-3 activation in MIA PaCa-2 cells; test: Fluorescence imaging of MIA PaCa-2 cells transfected with caspase-3 sensor, STS induction; type: cell-based
From the text: After induction, there was obvious increase in fluorescence of EGFP-EF172cas2 at 398 nm excitation and significant decrease in fluorescence at 488 nm excitation in real time, which results in an increased fluorescence ratio change between 398 and 488 nm, and a corresponding increase in sensitivity for determining the caspase-3 activity in living cells, and an increase in the dynamic range up to 4 for the caspase-3 activity determination. Although there was a slight increase and then decrease in fluorescence of EGFP-wt at both wavelengths after STS induction, the relative fluorescence ratio change was negligible. A possible reason for this would be a change in the cell shape to which increases the fluorescence slightly during the apoptosis. […] Apoptosis is observed in MIA PaCa-2 is a little earlier and stronger than in HeLa cells. There is a huge fluorescence change with excitation at 398 nm in MIA PaCa-2 cells transfected with EGFP-EF172cas2. The cause of this is reasoned to be due to intrinsic high-level caspase-3 activity in MIA PaCa-2 cells and its activity is enhanced by STS induction.

trypsin [5] = biological target: T1, trypsin; test: Steady-state kinetics of trypsin digestion of EGFP-based trypsin sensors and BAPNA (absorbance at 490 nm, Michaelis-Menten fit); type: biochemical, bovine; conditions: Table 2; 10 mM Tris, 20 mM CaCl2, pH 7.4
Protocol: Initial rates of trypsin digestion reaction for EGFP-T/C1 with various concentrations were measured using a time-course model to monitor the change of absorbance at 490 nm for 10 min on a UV-1700 spectrometer (Shimadzu, Japan), where the initial rate was equivalent to the resulting slope of absorbance increase.
In order to investigate the kinetic change and to determine the steady-state kinetic parameters kcat, Km, and kcat/Km for hydrolysis of EGFP-based trypsin sensors upon the action of trypsin, initial rates were measured at various EGFP-based trypsin sensor concentrations. The change of absorbance was monitored at 490 nm for 10 min using UV-1700 spectrometer (Shimadzu, Japan) in time-course model and the slope of absorbance increase was determined as the initial rate data. The data were fitted to the Michaelis-Menten equation by nonlinear regression using KaleidaGraph 3.5 software (Synergy software) to obtain the Michaelis constants (Km), turnover numbers (kcat) and specificity constants (kcat/Km).
In order to examine buffer pH effect on trypsin cleavage, kinetic parameters of our designed trypsin sensors were evaluated during trypsin digestion in PIPES buffer (20 mM PIPES, 20 mM CaCl2, pH 6.7) and Tris buffer (10 mM Tris, 20 mM CaCl2, pH 7.4 and pH 8.0), respectively. […]

trypsin [6] = biological target: T1, trypsin; test: Inhibition by leupeptin of trypsin digestion of EGFP-T/C1; type: biochemical, bovine
Protocol: In order to examine inhibition effect of leupeptin (Sigma, St. Louis), a trypsin inhibitor, leupeptin at various concentrations (0, 12.5, 25, 50 and 100 nM) was mixed with EGFP-T/C1 and subsequently digested by trypsin at a final concentration of 0.005 μM. The kinetic studies of EGFP-T/C1 with various concentrations were performed at each inhibitor concentration level and the absorbance change at 490 nm was mintored using a time course model. The double reciprocal of initial rates and trypsin sensor concentrations was performed to obtain the plot for confirming inhibition type and calculation of Ki value.
In order to ensure that our developed sensor is able to directly monitor the catalytic step of the enzymatic reaction, we then examined the inhibition effect of leupeptin on trypsin during the digestion of EGFP-T/C1 with various leupeptin concentrations. The rate of the signal change due to cleavage decreases with increasing leupeptin concentrations (FIG. 6A).

- cleavage status upon incubation with trypsin (trypsin [1]): remains intact
Compound: EGFP-wt: enhanced green fluorescent protein, Sequence ID. No. 119; used as the control
- ratiometric emission change (510 nm emission, excitation 488/398 nm) [2]: remained unchanged
- ratio (R398/488) of fluorescence signal change ([3]; Hela cells, 1 μM STS induction, emission 510 nm): no apparent ratiometric change; also recorded: negligible
- fluorescence ratio change [4]: maintains a gradient increase

- kcat (trypsin [5]): 1.33 ± 0.17 s⁻¹
Compound: Cl.N=C(N)NCCCC(NC(=O)c1ccccc1)C(=O)Nc1ccc([N+](=O)[O-])cc1 (racemic) [BAPNA, benzoyl-DL-arginine-4-nitroanilide hydrochloride]

Compound: DEVD-CHO
- ratio (R398/488) of fluorescence of caspase-3 sensor cells incubated with caspase-3 inhibitor ([3]; Hela cells transfected with EGFP-cas3-1e, inhibitor overnight, then 1 μM STS): no change

Compound: CC(=O)N[C@@H](CC(C)C)C(=O)N[C@@H](CC(C)C)C(=O)N[C@H](C=O)CCCNC(=N)N [leupeptin]
- inhibition type (trypsin [6]; double reciprocal plot, Enzfitter fit): competitive inhibition
- Ki (trypsin [6]; substrate EGFP-T/C1, 0.005 μM trypsin, 10 mM Tris, 20 mM CaCl2, pH 7.4): 0.0311 ± 0.0023 µM
